Results taken from paper PMC3280214, “Structure Based Discovery of Small Molecules to Regulate the Activity of Human Insulin Degrading Enzyme” (PLoS ONE, 2012).
pEC50: −log10 of the molar value. Several values for one entry are separate records, joined by “and”; a condition that tells them apart may be missing. Identical values can stand only once.

Target: T1, IDE (Homo sapiens, UniProt P14735)
T1 construct: made in house; host or cells: E. coli BL21
T1 sequence (P14735 1-1019): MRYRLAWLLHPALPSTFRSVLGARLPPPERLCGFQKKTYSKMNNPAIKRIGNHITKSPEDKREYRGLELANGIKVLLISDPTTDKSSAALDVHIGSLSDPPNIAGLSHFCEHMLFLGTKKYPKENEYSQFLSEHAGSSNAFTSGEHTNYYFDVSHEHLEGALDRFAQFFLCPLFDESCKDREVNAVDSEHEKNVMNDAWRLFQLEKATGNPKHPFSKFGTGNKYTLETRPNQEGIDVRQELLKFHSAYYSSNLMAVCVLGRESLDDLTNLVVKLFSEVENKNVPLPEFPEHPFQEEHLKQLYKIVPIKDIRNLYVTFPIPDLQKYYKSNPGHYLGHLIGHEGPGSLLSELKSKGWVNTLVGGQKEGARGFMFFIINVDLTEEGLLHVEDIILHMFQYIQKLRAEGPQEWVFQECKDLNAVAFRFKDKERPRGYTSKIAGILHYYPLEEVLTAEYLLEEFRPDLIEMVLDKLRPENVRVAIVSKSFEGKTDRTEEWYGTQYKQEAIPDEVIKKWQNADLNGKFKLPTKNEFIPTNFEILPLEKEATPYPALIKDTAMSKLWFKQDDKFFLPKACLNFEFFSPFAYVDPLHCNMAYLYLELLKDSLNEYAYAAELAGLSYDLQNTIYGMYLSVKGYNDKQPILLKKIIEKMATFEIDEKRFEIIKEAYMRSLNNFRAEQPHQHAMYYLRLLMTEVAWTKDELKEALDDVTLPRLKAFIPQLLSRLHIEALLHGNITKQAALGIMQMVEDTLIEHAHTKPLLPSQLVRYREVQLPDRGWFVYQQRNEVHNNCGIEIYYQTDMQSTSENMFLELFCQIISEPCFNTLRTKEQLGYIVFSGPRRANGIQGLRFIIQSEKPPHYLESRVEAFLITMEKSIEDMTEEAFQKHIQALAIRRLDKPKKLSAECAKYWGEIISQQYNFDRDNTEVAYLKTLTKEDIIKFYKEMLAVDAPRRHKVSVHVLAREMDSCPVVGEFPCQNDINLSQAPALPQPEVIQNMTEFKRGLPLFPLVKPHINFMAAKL
Test: Degradation of fluorogenic substrate V by IDE
Format: biochemical
Conditions: for increase of IDE-mediated substrate V degradation: 20 µM compound; for pEC50: dose response, Sigmoidal Hill 4 parameter fit
Method: The 10 compounds given in Table 1 were subjected to further characterization and their effect was measured on the proteolytic activity of IDE using different substrates. Initially, activity assays were carried out at fixed 20 µM concentrations for all molecules to identify the effect of those compounds on IDE activity. IDE activity was quantified by monitoring the change in fluorescence for the proteolysis of fluorogenic-substrate V, FITC- insulin-bound antibody, and FAβB by recombinant human IDE purified from E.coli BL21 [6], [18], [19]. […] Also, D6 increased the amyloid-β degradation by 20% (Fig. S1C). Further, D10 enhanced IDE-mediated FITC-insulin-mAb and substrate V degradation by 290% and 65%, respectively (Fig. S1A, B). Next, an EC50 value of each molecule that enhanced IDE activity was determined with a dose response assay, where specific activity of IDE was measured with different concentrations of the lead compounds and then the plot was fit to Sigmoidal Hill-4 parameter equation. […] EC50 value for D3 on insulin degradation was approximately measured as 20 µM (Fig. S2C), whereas EC50 value for D6 on amyloid-β degradation was 2 µM (Fig. S2D). […] Among all these four compounds, D10 seems to be the potent activator of IDE, when proteolysis of insulin is considered.
To assess the utility of these novel compounds as chemical regulators for IDE activity, we used fluorescence assay with fluorogenic substrate V (7-methoxycoumarin-4-yl-acetyl-NPPGFSAFK-2, 4-dinitrophenyl). Reaction was carried out in the presence of 105 µl of 10 µl of 40 µM substrate V; 10 µl of 0.02 mg/ml of IDE in 83 µl of 30 mM KH2PO4 at pH of 7.3, and various concentrations (0–35 µM) compounds and also with various time intervals (0–4 hours). The reaction mixture was incubated at 37°C for 2.5 h. The hydrolysis of substrate V was monitored using a Tecan Safire2 microplate reader with excitation and emission wavelengths set at 300 and 395 nm, respectively.
The effect of the lead compounds on the initial rate of proteolysis of IDE was determined by measurement in fluorescence with time both in the presence and absence of the lead compounds. The kinetic data for IDE-mediated insulin, substrate V and amyloid-β degradation were plotted and fitted using SigmaPlot software (Sigmoidal, Hill, 4 parameter). For the initial rate calculations, kinetic data were fitted using SigmaPlot software (Hyperbola; Single Rectangular I, 3 Parameter).

SMILES | increase of IDE-mediated substrate V degradation | pEC50 | increase of initial rate of substrate V degradation (presence vs absence of compound)
Cc1nn(-c2ccccc2)c2nc(-c3cccc([N+](=O)[O-])c3)n3c4ccccc4nc3c2c1=O [Compound D10] | 65% and 60% | 4.89 | about 2 fold
Nc1c(C(=O)Nc2ccccc2F)c2ccccn2c1C(=O)c1ccc2c(c1)CCCC2 [Compound D4] | 36% | 5.15 | 
